{"source": "patent US8921394B2", "about": "“Prolylcarboxypeptidase inhibitors” (Merck Sharp & Dohme Corp., priority 2010, dated 2014)", "key": {"human PrCP": {"molecular_target": "T1, human PrCP (Homo sapiens, UniProt P42785)", "T1 construct": "made in house", "T1 sequence (P42785 46-496)": "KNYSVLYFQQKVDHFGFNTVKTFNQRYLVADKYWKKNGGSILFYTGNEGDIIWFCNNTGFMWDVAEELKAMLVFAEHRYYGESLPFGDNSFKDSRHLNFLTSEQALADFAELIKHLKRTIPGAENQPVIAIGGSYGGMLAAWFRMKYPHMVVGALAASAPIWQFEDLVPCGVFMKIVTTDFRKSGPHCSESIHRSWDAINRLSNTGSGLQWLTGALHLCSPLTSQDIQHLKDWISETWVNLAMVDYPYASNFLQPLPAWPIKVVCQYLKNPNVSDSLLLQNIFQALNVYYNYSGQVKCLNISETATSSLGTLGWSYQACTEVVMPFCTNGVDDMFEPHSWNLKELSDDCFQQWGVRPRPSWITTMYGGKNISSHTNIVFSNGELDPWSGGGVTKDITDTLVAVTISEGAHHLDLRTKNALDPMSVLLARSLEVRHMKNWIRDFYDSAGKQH", "assay": "Prolylcarboxypeptidase (PRCP) enzyme activity assay, fluorescence intensity kinetic assay", "type": "biochemical", "method": "The potency of compounds of formula I against PrCP was determined by a fluorescence intensity kinetic assay measuring the IC50 values of PrCP inhibitor test compounds. […] The assay was run on a Perkin. […] The assay was performed using a Hamilton Star liquid handling workstation. The assay employed the internally quenched fluorescent substrate (1S)-1-carboxy-5-[(2,4-dinitrophenyl)amino]pentyl [(7-methoxy-2-oxo-2H-chromen-4-yl)acetyl]-L-alanyl-L-prolinate prepared in house. The assay was run in a 384-well microtiter plate at 37° C. with a total volume of 50 uL. […] The assay also contained 2% DMSO used to solubilize the substrate and inhibitor. Inhibitors were prepared in 100% DMSO and serial diluted (in 100% DMSO) to generate 11 point titration curves. Either 39 uL of human or mouse PrCP enzyme was added to the wells of the assay plate, followed by a 1 uL addition of the serially diluted inhibitor and mixed three times using a 30 uL mix volume. The reaction was initiated by the addition of 10 uL substrate and mixed three times using a 30 uL mix volume. The reactions were monitored continuously over 25 min at 37° C. to obtain initial velocities. IC50 values were calculated by comparing the resulting rates of reaction of the inhibited and control initial velocities.\nThe enzymes were diluted in a mixture of 10 mM NaOAc (pH 5.5)/100 mM NaCl buffer containing 25 ug/mL bovine serum albumin that had been warmed to 37° C. in a water bath. The PrCP inhibitor test compounds were plated in 100% DMSO with a highest concentration of 500 uM. There were 12 dilution points for each compound tested including a blank with DMSO only. […] Likewise, two control compounds were similarly titrated and included in each assay, with final starting concentrations starting at 10,000 nM and 200 nM, respectively. […] The substrate was solubilized in 100% DMSO prior to dilution into the assay."}, "[1]": {"conditions": "intracerebroventricular to rats; cited from earlier work"}, "[2]": {"conditions": "systemic administration to obese, leptin deficient mice; cited from earlier work"}, "[3]": {"conditions": "recombinant human PrCP, cell line CHO, read-out: Human PRCP Enzyme Inhibition IC50"}}, "note": "Counter-ions that a name gives are not always drawn. Like-named read-outs stand apart in the source and are kept apart here.", "data": [{"compound": "Fc1ccc(-c2cc([C@@H]3CCN(CCc4ccccc4)C[C@H]3c3ccc(F)cc3)n[nH]2)cc1", "note": "(relative stereo) [Example 11, (3R*,4R*)-3-(4-fluorophenyl)-4-[5-(4-fluorophenyl)-1H-pyrazol-3-yl]-1-phenethyl-piperidine trifluoroacetate salt]", "values": [{"measurement": "IC50", "setting": "human PrCP; [3]", "result": 2.3, "unit": "nM"}]}, {"compound": "N#Cc1cccc(-c2cc([C@@H]3CCN(CCc4ccccc4)C[C@H]3c3ccc(F)cc3)n[nH]2)c1", "note": "(relative stereo) [Example 12, 3-[3-[(3R*,4R*)-3-(4-fluorophenyl)-1-phenethyl-4-piperidyl]-1H-pyrazol-5-yl]benzonitrile triflizoroacetate salt]", "values": [{"measurement": "IC50", "setting": "human PrCP; [3]", "result": 7.9, "unit": "nM"}]}, {"compound": "Fc1ccc([C@@H]2CN(CCc3ccccc3)CC[C@H]2c2n[nH]c(-c3ccc(Cl)cc3)n2)cc1", "note": "(relative stereo) [Example 20, (3R*,4R*)-4-[5-(4-chlorophenyl)-1H-1,2,4-triazol-3-yl]-3-(4-fluorophenyl)-1-phenethyl-piperidine trifluoroacetate salt]", "values": [{"measurement": "IC50", "setting": "human PrCP; [3]", "result": 50.9, "unit": "nM"}]}, {"compound": "Cn1nc(C2(c3ccccn3)CCN(CCc3ccccc3)CC2)cc1-c1ccc(F)cc1", "note": "[Example 3, 2-[4-[5-(4-fluorophenyl)-1-methyl-pyrazol-3-yl]-1-phenethyl-4-piperidyl]pyridine bis(trifluoroacetate) salt]", "values": [{"measurement": "IC50", "setting": "human PrCP", "result": 498, "unit": "nM"}]}, {"compound": "Clc1ccc(CCN2CCC(c3ccccc3)(c3cc(-c4ccc(Cl)cc4)[nH]n3)CC2)cc1", "note": "[Example 6, 1-[2-(4-chlorophenyl)ethyl]-4-[5-(4-chlorophenyl)-1H-pyrazol-3-yl]-4-phenyl-piperidine trifluoroacetate salt]", "values": [{"measurement": "IC50", "setting": "human PrCP", "result": 175, "unit": "nM"}]}, {"compound": "CC(C)(C)N1C[C@@H](c2cc(-c3ccc(Cl)cc3)[nH]n2)[C@H](c2ccc(F)cc2F)C1", "note": "[Example 13, 3-[(3S,4R)-1-tert-butyl-4-(2,4-difluorophenyl)pyrrolidin-3-yl]-5-(4-chlorophenyl)-1H-pyrazole trifluoroacetate salt]", "values": [{"measurement": "IC50", "setting": "human PrCP; recombinant human PrCP, cell line HEK, read-out: Human PRCP Enzyme Inhibition IC50", "result": 413, "unit": "nM"}]}, {"compound": "t-butyl carbamate-prolyl prolinal [BPP]", "values": [{"measurement": "overnight food intake", "setting": "[1]", "result": "suppression of overnight food intake"}, {"measurement": "overnight food intake", "setting": "[2]", "result": "suppression of overnight food intake"}]}]}
